Entries after “also recorded” stand apart in the source; their conditions may differ. Where two headings read alike, the source gives them in different places. Blank lines part the entries; values can stand above or below the molecule they belong to.
Tests used:
[1] = molecular target: Human DPP4 (Homo sapiens (Human), UniProt P27487); test: DPP4 activity assay (Sigma-Aldrich MAK088 kit); format: biochemical; conditions: Table 4; read-out: DPPIV IC50
Description: DPP4 activity assay. Human DPP4 activity assay data were obtained using a DPP4 Activity Assay Kit (Sigma-Aldrich, MAK088) according to the manufacturer's instructions. Briefly, 10 μL of DPP4 Assay Buffer was transferred per well in low volume 384-well plates before transferring 10 μL of diluted compound dissolved in DPP4 assay buffer. 5 μL of Master Reaction Mix containing a fluorescent substrate that becomes fluorescent upon cleavage by the enzyme. Fluorescence intensity measurements were recorded at 1-minute time intervals over the course of 20 minutes using an Envision Multimode Plate Reader (PerkinElmer).

[2] = test system: Primary human AEC2s; test: AEC2 proliferation assay (Ki67 high content imaging); format: cell-based
Description: To identify small molecules capable of proliferating AEC2s, as disclosed herein, we first established a culture system with primary human small airway epithelial cells (SAECs) from a commercial source.
AEC2 proliferation assay. Primary human AEC2s were plated at a density of 1,500 cells per well in black 384-well plates (Greiner) coated with 10 ug/mL. Laminin (Life Technologies) in 50 μL of Small Airway Epithelial Cell Growth Medium (Lonza) without EGF, retinoic acid and with 5% BPE. 100 nL of compound dissolved in DMSO was then delivered using a Biomek FX instrument (Beckman Coulter) fitted with a pintool head (V&P Scientific).

[3] = IT pharmacokinetics of dutogliptin (1) and dutogliptin boronate (15); format: in vivo, mouse; conditions: for Plasma concentration of dutogliptin, individual animals / Bronchoalveolar lavage fluids concentration of dutogliptin, individual animals / Lung concentration of dutogliptin, individual animals: mice, 1.8 mg/kg IT dutogliptin boronate (cpd 15)
Description: Like other […]. Dutogliptin (1) dosed IT in mice with PBS solution quickly cleared in lung (<24h. Table 8A). […] The parent drug dutogliptin was detected in plasma and lung. […] The drug was retained in the lung for over 48 h. The data clearly illustrated the unexpected lung retention ability of boronate prodrug 15.

[4] = test system: bleomycin-induced lung fibrosis; test: Bleomycin-induced lung fibrosis model; format: in vivo, mouse; conditions: 0.5 mg/kg IT once every four days, versus vehicle
Description: Experimental Methods of Bleomycin Model Bleomycin (Hospira) was used to induce lung fibrosis in mice. Body weight matched (24 gram˜28 gram) male C57BL/6J mice at 10-12 weeks of age were selected to use in bleomycin model. For orally delivered DPP4 inhibitors. compounds were dissolved in PBS resulting in clear solution. […] For intratracheally delivered DPP4 inhibitors, compounds were dissolved in PBS resulting in clear solution. […] 0.5 U/kg Bleomycin or PBS in sham group was intratracheally injection into mice lung at day 0. […] All animals were sacrificed at day 20 after bleomycin injection. Bronchoalveolar lavage fluid (BALF) was retrieved using standard method. 1 ml 4% formalin was used to inflate the lung, which was subsequently fixed in 4% formalin for 24 hours and preserved in 70% EtOH until histological process. For readouts, body weight was measured every day; total protein content in BALF was quantified using BCA assay; pulmonary fibrosis was assessed using Masson's trichrome staining.

[5] = test system: alveolar epithelium; conditions: Stone et al., Diab et al.; cited from earlier work
[6] = test system: human pulmonary fibroblasts; test: Pulmonary fibroblast counter-assay; format: cell-based; conditions: at concentrations that promoted AEC2 proliferation
[7] = Homo sapiens, Table 4, promotion of AEC2 proliferation, read-out: AEC2 EC50
[8] = Homo sapiens, Table 5, read-out: AEC2 proliferation

Chain of Human DPP4 (P27487 whole entry): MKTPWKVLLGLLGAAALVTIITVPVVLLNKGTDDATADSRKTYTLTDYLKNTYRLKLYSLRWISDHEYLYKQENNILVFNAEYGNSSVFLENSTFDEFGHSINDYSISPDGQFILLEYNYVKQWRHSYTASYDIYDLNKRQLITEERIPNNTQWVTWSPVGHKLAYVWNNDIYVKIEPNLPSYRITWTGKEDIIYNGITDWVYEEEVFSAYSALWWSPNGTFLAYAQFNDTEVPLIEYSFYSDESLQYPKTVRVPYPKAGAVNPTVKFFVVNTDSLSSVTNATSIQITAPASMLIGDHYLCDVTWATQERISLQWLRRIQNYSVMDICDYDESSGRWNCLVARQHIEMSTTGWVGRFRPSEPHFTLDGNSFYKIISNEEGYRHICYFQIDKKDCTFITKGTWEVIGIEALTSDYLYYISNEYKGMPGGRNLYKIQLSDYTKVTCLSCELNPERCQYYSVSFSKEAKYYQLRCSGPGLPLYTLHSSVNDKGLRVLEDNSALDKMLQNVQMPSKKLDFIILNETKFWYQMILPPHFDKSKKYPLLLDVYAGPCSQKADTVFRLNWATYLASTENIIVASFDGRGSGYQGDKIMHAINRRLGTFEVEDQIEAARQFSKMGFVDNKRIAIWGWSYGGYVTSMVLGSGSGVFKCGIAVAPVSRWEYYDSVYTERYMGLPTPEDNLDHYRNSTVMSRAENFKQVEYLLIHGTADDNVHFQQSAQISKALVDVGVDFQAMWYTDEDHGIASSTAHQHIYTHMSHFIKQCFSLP

Structure (SMILES): Cn1c(=O)cc(N2CCC[C@@H](N)C2)n(Cc2ccccc2C#N)c1=O [Cpd 7, (R)-2-((6-(3-aminopiperidin-1-yl)-3-methyl-2,4-dioxo-3,4-dihydropyrimidin-1(2H)-yl)methyl)benzonitrile]
EC50 [2, 7]: 110 nM
EC50 [2, 8]: 110 nM

Structure (SMILES): CS(=O)(=O)n1cc2c(n1)CN([C@H]1CO[C@H](c3cc(F)ccc3F)[C@@H](N)C1)C2 [Cpd 9, (2R,3S,5R)-2-(2,5-difluorophenyl)-5-(2-(methylsulfonyl)-2,6-dihydropyrrolo[3,4-c]pyrazol-5(4H)-yl)tetrahydro-2H-pyran-3-amine]
EC50 [2, 7]: 43 nM
EC50 [2, 8]: 43 nM

Structure (SMILES): Cn1c(=O)cc(N2CCC[C@@H](N)C2)n(Cc2cc(F)ccc2C#N)c1=O [Cpd 10, (R)-2-((6-(3-aminopiperidin-1-yl)-3-methyl-2,4-dioxo-3,4-dihydropyrimidin-1(2H)-yl)methyl)-4-fluorobenzonitrile]
EC50 [2, 7]: 67 nM
EC50 [2, 8]: 67 nM

Structure (SMILES): N[C@@H](CC(=O)N1CCc2c(nc(C(F)(F)F)nc2C(F)(F)F)C1)CN1CC(F)(F)CCC1=O [Cpd 11, (S)-1-(2-amino-4-(2,4-bis(trifluoromethyl)-5,8-dihydropyrido[3,4-d]pyrimidin-7(6H)-yl)-4-oxobutyl)-5,5-difluoropiperidin-2-one]
EC50 [2, 7]: 220 nM
EC50 [2, 8]: 220 nM

Structure (SMILES): N[C@@H](CC(=O)N1CCn2c(C(F)(F)F)nc(C(=O)O)c2C1)Cc1cc(F)c(F)cc1F [Cpd 26, (R)-7-(3-amino-4-(2,4,5-trifluorophenyl)butanoyl)-3-(trifluoromethyl)-5,6,7,8-tetrahydroimidazo[1,5-a]pyrazine-1-carboxylic acid]
IC50 [1]: 0.8 nM

Structure (SMILES): CCCCCCCCc1ccc(CCC(N)(CO)CO)cc1 [FTY-720]
AEC2 proliferation, result in words [2]: active
apoptosis and inflammatory cytokine release in alveolar epithelium [5]: inhibited apoptosis and inflammatory cytokine release

Structure (SMILES): CC(C)Oc1ccc(-c2nc(-c3cccc4c3CC[C@@H]4NCCO)no2)cc1C#N [Ozanimod]
AEC2 proliferation, result in words [2]: active

Structure (SMILES): FC(F)(F)c1cccc(-c2noc(-c3cc(-c4ccccc4)c(C(F)(F)F)s3)n2)c1 [SEW-2871]
AEC2 proliferation, result in words [2]: active
apoptosis and inflammatory cytokine release in alveolar epithelium [5]: inhibited apoptosis and inflammatory cytokine release

Structure (SMILES): CCc1cc(/C(C)=N/OCc2ccc(C3CCCCC3)c(C(F)(F)F)c2)ccc1CN1CC(C(=O)O)C1 [siponimod]
EC50 ([2]; Homo sapiens, FIG. 1B, 1C, read-out: EC50, AEC2 proliferation (ReFRAME screen hits)): ~100 nM
total number, percent Ki67 positivity, or myofibroblast differentiation status of pulmonary fibroblasts [6]: did not increase

Second part, led by results:

IC50 [1]: 2.2 nM
Structure (SMILES): CCOC(=O)C12CCC(NCC(=O)N3C[C@@H](F)C[C@H]3C#N)(CC1)CC2 [Cpd 2, ethyl 4-((2-((2S,4S)-2-cyano-4-fluoropyrrolidin-1-yl)-2-oxoethyl)amino)bicyclo[2.2.2]octane-1-carboxylate]

EC50 [2, 7]: 160 nM
EC50 [2, 8]: 160 nM
Structure (SMILES): N#C[C@@H]1CCCN1C(=O)CNC12CC3C[C@@H](C1)C[C@@](O)(C3)C2 [Cpd 3, (2S)-1-(((1S,3R,5S)-3-hydroxyadamantan-1-yl)glycyl)pyrrolidine-2-carbonitrile]

EC50 [2, 7]: 110 nM
EC50 [2, 8]: 110 nM
Structure (SMILES): Cc1cc2ncc(C(=O)NCC(C)(C)NCC(=O)N3CCC[C@H]3C#N)cn2n1 [Cpd 12, (S)-N-(2-((2-(2-cyanopyrrolidin-1-yl)-2-oxoethyl)amino)-2-methylpropyl)-2-methylpyrazolo[1,5-a]pyrimidine-6-carboxamide]

plasma and lung levels of the boronate itself ([3]; IT dosing, data not shown): very low and absent after 0.25 h
Plasma concentration of dutogliptin, individual animals ([3]; 7.00 h): BQL
Plasma concentration of dutogliptin, individual animals ([3]; 24.0 h): BQL
Bronchoalveolar lavage fluids concentration of dutogliptin, individual animals ([3]; 48.0 h): BQL
Lung concentration of dutogliptin, individual animals ([3]; 48.0 h): BQL
Plasma concentration of dutogliptin, individual animals ([3]; 48.0 h): BQL
Bronchoalveolar lavage fluids concentration of dutogliptin, individual animals ([3]; 96.0 h): BQL
Lung concentration of dutogliptin, individual animals ([3]; 96.0 h): BQL
Plasma concentration of dutogliptin, individual animals ([3]; 96.0 h): BQL
Bronchoalveolar lavage fluids concentration of dutogliptin, individual animals ([3]; 168 h): BQL
Lung concentration of dutogliptin, individual animals ([3]; 168 h): BQL
Plasma concentration of dutogliptin, individual animals ([3]; 168 h): BQL
Structure (SMILES): CC1(C)[C@@H]2C[C@H]3OB([C@@H]4CCCN4C(=O)CN[C@@H]4CCNC4)O[C@@]3(C)[C@H]1C2 [Cpd 15, 2-(((R)-pyrrolidin-3-yl)amino)-1-((R)-2-((3aS,4S,6S,7aR)-3a,5,5-trimethylhexahydro-4,6-methanobenzo[d][1,3,2]dioxaborol-2-yl)pyrrolidin-1-yl)ethan-1-one]
conversion of the boronate to the active drug ([3]; mouse IT pharmacokinetic study): convert to the active drug dutogliptin in both plasma and lung
lung exposure of dutogliptin after IT boronate versus IT dutogliptin itself ([3]; mouse, in vivo): significantly higher; also recorded: much higher
BALF protein level [4]: reduced

IC50 [1]: 1.2 nM
Structure (SMILES): N#C[C@@H]1C[C@H](F)CN1C(=O)CNC12CCC(C(=O)O)(CC1)CC2 [Cpd 16, 4-((2-((2S,4S)-2-cyano-4-fluoropyrrolidin-1-yl)-2-oxoethyl)amino)bicyclo[2.2.2]octane-1-carboxylic acid]

IC50 [1]: 1 nM
Structure (SMILES): COC(=O)C12CCC(NCC(=O)N3C[C@@H](F)C[C@H]3C#N)(CC1)CC2 [Cpd 17, methyl 4-((2-((2S,4S)-2-cyano-4-fluoropyrrolidin-1-yl)-2-oxoethyl)amino)bicyclo[2.2.2]octane-1-carboxylate]

IC50 [1]: 38 nM
Structure (SMILES): N#C[C@@H]1CCCN1C(=O)CNC12CC3C[C@H](CC(N)(C3)C1)C2 [Cpd 18, (2S)-1-(((1S,3R,5R)-3-aminoadamantan-1-yl)glycyl)pyrrolidine-2-carbonitrile]

IC50 [1]: 6 nM
Structure (SMILES): CC#CCn1c(N2CCC[C@@H](N)C2)cc(=O)n(Cc2cccc(C(=O)OC)c2)c1=O [Cpd 25, methyl (R)-3-((4-(3-aminopiperidin-1-yl)-3-(but-2-yn-1-yl)-2,6-dioxo-3,6-dihydropyrimidin-1(2H)-yl)methyl)benzoate]

EC50 ([2]; FIG. 1B, 1C, read-out: EC50, AEC2 proliferation (ReFRAME screen hits)): ~500 nM
Structure (SMILES): N#Cc1ccc(NCCNCC(=O)N2CCC[C@H]2C#N)nc1 [NVP-728]
total number, percent Ki67 positivity, or myofibroblast differentiation status of pulmonary fibroblasts [6]: did not increase

Reference: patent US20240115577A1, “SMALL MOLECULE REGULATORS OF ALVEOLAR TYPE 2 CELL PROLIFERATION FOR THE TREATMENT OF PULMONARY DISEASES” (THE SCRIPPS RESEARCH INSTITUTE, priority 2021, published 2024)
